According to patent US20230119764A1, “APPLICATION OF DIMETHYL BERBAMINE COMPOUND IN INHIBITION OF SARS-COV-2” (priority 2020, published 2023):
Entries after “also recorded” stand apart in the source; their conditions may differ.

What was measured:
Format in all cases: cell-based
[1] = test system: SARS-CoV-2 virus (nCoV-2019BetaCoV/Wuhan/WIV04/2019 isolate); test: microbe, parasite or virus in culture; settings: for SI (selectivity index): Example 2, no drug pretreatment; for EC50: Severe acute respiratory syndrome coronavirus 2, Vero C1008, Example 2, no drug pretreatment; for Inhibition of SARS-CoV-2 (in words): Example 2, drug added after virus infection of cells
Vero-E6 cells = test: Drug cytotoxicity on cells, CellTiter-Glo kit; settings: for Cell viability (% of vehicle control): Vero-E6, 24 hours
Method: (§1) 1.5.1 Vero E6 cell culture: 0.1 ml of 0.25% trypsin, 5 ml of 0.02% EDTA were added to a culture flask full of cells, the digestion was carried out at 37° C. for 5 minutes, then the digestion solution was discarded, the cell culture solution was added and then mixed by pipetting up-down. The cells were subcultured at 1:3, reached confluence within 3 days, formulated into 100,000 cells per ml, inoculated to a 96-well cell culture plate, 0.1 ml per well, and cultured at 37° C., 5% CO2 for 24 hours, and the cells grew into monolayer was used for experiment.
(§2) 1.5.2 Experiment of Drug Cytotoxicity on Cells:
(§3) The detection of drug cytotoxicity was determined using CellTiter-Glo kit (Promega). Specific steps were as follows:
(§4) (1) 1×10^4 Vero-E6 cells were inoculated in a 96-well plate and cultured at 37° C. for 8 hours.
(§5) (2) The stock solution of drug was diluted with MEM medium containing 2% FBS to the desired concentration, the original medium in the 96-well plate was discarded, and 100 μL of the drug-containing MEM medium was taken and added to the corresponding wells, so that the final concentrations of drug in the wells were those shown in Tables 1 to 3, respectively, and three replicate wells were made for each concentration. At the same time, a vehicle control (adding DMSO or PBS, and 2% FBS-containing MEM medium without drug to the cell wells) and a blank control (adding DMSO and 2% FBS-containing MEM medium to the wells without cells) were set. After the addition of drug, the cells were incubated at 37° C. for 24 hours.
(§6) (3) 100 μL of CellTiter-Glo solution (Promega) was added to the wells to be tested, and mixed by shaking for 2 min to fully lyse the cells, incubated at room temperature for 10 minutes, and readings of chemiluminescence signals […] were obtained on a microplate reader (purchased from Molecular Devices, model: SpectraMax M5). The cell viability was calculated by taking the readings into the following formula:
(§7) Cell viability (%)=(A(drug treatment group)−A(blank control))/(A(vehicle control)−A(blank control))×100%
(§8) where A represented the reading on the microplate reader.

[2] = Drug cytotoxicity on cells, CellTiter-Glo kit; settings: African green monkey; Vero-E6 cells, 24 hours
Method: as §1, §2, §3, §4, §5, §6, §7, §8

[3] = test system: SARS-CoV-2 virus (nCoV-2019BetaCoV/Wuhan/WIV04/2019 isolate); test: microbe, parasite or virus in culture; settings: for Copy number of viral genome (MOI = 0.01): MOI 0.01, Vero E6 supernatant; for Copy number of viral genome (MOI = 0.01) / Copy number of viral genome (MOI = 0.05): 48 h, copy number per milliliter; for Copy number of viral genome (MOI = 0.05): MOI 0.05, Vero E6 supernatant; for SI (selectivity index): Example 1, drug pretreatment 1 hour; for EC50: Severe acute respiratory syndrome coronavirus 2, Vero C1008, Example 1, drug pretreatment 1 hour
[4] = test system: SARS-CoV-2 virus (nCoV-2019BetaCoV/Wuhan/WIV04/2019 isolate); test: EC50 by nucleic acid quantification on Vero cells (Example 3), quantitative RT-PCR
[5] = MOI 0.01, Vero E6, read-out: EC50
[6] = MOI 0.05, Vero E6, read-out: EC50

CCC(CC)COC(=O)[C@H](C)N[P@](=O)(OC[C@H]1O[C@@](C#N)(c2ccc3c(N)ncnn23)[C@H](O)[C@@H]1O)Oc1ccccc1 [Remdesivir]
SI (selectivity index) ([1]; MOI 0.01): 696.96
SI (selectivity index) ([1]; MOI 0.05): 258.55
EC50 ([1]; MOI 0.01, Vero E6): 230 nM
EC50 ([1]; MOI 0.05, Vero E6): 620 nM
Cell viability (% of vehicle control) (Vero-E6 cells; 3.13 μM): 97.16 % of vehicle control
Cell viability (% of vehicle control) (Vero-E6 cells; 6.25 μM): 99.17 % of vehicle control
Cell viability (% of vehicle control) (Vero-E6 cells; 12.5 μM): 99.62 % of vehicle control
Cell viability (% of vehicle control) (Vero-E6 cells; 25 μM): 95.71 % of vehicle control
Cell viability (% of vehicle control) (Vero-E6 cells; 50 μM): 90.20 % of vehicle control
Cell viability (% of vehicle control) (Vero-E6 cells; 100 μM): 70.09 % of vehicle control
Cell viability (% of vehicle control) (Vero-E6 cells; 200 μM): 40.05 % of vehicle control
CC50 at 24 h [2]: 160 µM
Copy number of viral genome (MOI = 0.01) ([3]; 0.12 μM): 3900176000
Copy number of viral genome (MOI = 0.05) ([3]; 0.12 μM): 11594175000
Copy number of viral genome (MOI = 0.01) ([3]; 0.37 μM): 1901120292
Copy number of viral genome (MOI = 0.05) ([3]; 0.37 μM): 9405568167
Copy number of viral genome (MOI = 0.01) ([3]; 1.11 μM): 19898611
Copy number of viral genome (MOI = 0.05) ([3]; 1.11 μM): 545157271
Copy number of viral genome (MOI = 0.01) ([3]; 3.33 μM): 243294
Copy number of viral genome (MOI = 0.05) ([3]; 3.33 μM): 13188656
Copy number of viral genome (MOI = 0.01) ([3]; 10 μM): 563645
Copy number of viral genome (MOI = 0.05) ([3]; 10 μM): 3230111
Copy number of viral genome (MOI = 0.01) ([3]; 30 μM): 975616
Copy number of viral genome (MOI = 0.05) ([3]; 30 μM): 2594526
SI (selectivity index) ([3]; MOI 0.01): 534.33
SI (selectivity index) ([3]; MOI 0.05): 271.69
EC50 ([3]; MOI 0.01, Vero E6): 300 nM
EC50 ([3]; MOI 0.05, Vero E6): 590 nM

COc1ccc2cc1Oc1ccc(cc1)C[C@H]1c3cc(c(OC)cc3CCN1C)Oc1c(OC)c(OC)cc3c1[C@H](C2)N(C)CC3 [Tetrandrine, 6,6′,7,12-tetramethoxy-2,2′-dimethylberbamine]
Inhibition of SARS-CoV-2 (in words) [1]: inhibitory activity
Inhibition of SARS-CoV-2 (in words) ([1]; listed as tetrandrine): obvious inhibitory effects
SI (selectivity index) ([1]; MOI 0.01): 15.22
SI (selectivity index) ([1]; MOI 0.05): 12.51
EC50 [1, 5]: 1610 nM
EC50 [1, 6]: 1950 nM
Inhibition of SARS-CoV-2 (in words) ([4]; Example 3, cellular level, Vero cells): inhibitory effect
EC50 ([4]; Severe acute respiratory syndrome coronavirus 2, 48 h, Example 3, Vero cells, viral load 100 TCID50, two days after infection): 8.99 µM
Cell viability (% of vehicle control) (Vero-E6 cells; 1.56 μM): 94.81 % of vehicle control
Cell viability (% of vehicle control) (Vero-E6 cells; 3.13 μM): 97.38 % of vehicle control
Cell viability (% of vehicle control) (Vero-E6 cells; 6.25 μM): 91.24 % of vehicle control
Cell viability (% of vehicle control) (Vero-E6 cells; 12.5 μM): 78.14 % of vehicle control
Cell viability (% of vehicle control) (Vero-E6 cells; 25 μM): 58.25 % of vehicle control
Cell viability (% of vehicle control) (Vero-E6 cells; 50 μM): 0.28 % of vehicle control
Cell viability (% of vehicle control) (Vero-E6 cells; 100 μM): 0.96 % of vehicle control
Toxicity on Vero E6 cells (in words) (Vero-E6 cells; all tested concentrations): good safety for the test cells in vitro
CC50 at 24 h [2]: 24.5 µM
Copy number of viral genome (MOI = 0.01) ([3]; 0.625 μM): 3357508000
Copy number of viral genome (MOI = 0.05) ([3]; 0.625 μM): 10669558667
Copy number of viral genome (MOI = 0.01) ([3]; 1.25 μM): 3336005167
Copy number of viral genome (MOI = 0.05) ([3]; 1.25 μM): 7198143667
Copy number of viral genome (MOI = 0.01) ([3]; 2.5 μM): 1707286250
Copy number of viral genome (MOI = 0.05) ([3]; 2.5 μM): 7118504000
Copy number of viral genome (MOI = 0.01) ([3]; 5 μM): 373861479
Copy number of viral genome (MOI = 0.05) ([3]; 5 μM): 2477488500
Copy number of viral genome (MOI = 0.01) ([3]; 10 μM): 1456943
Copy number of viral genome (MOI = 0.05) ([3]; 10 μM): 8161310
Copy number of viral genome (MOI = 0.01) ([3]; 20 μM): 1323393
Copy number of viral genome (MOI = 0.05) ([3]; 20 μM): 4092752
SI (selectivity index) ([3]; MOI 0.01): 14.33
SI (selectivity index) ([3]; MOI 0.05): 8.51
Inhibition of SARS-CoV-2 (in words) ([3]; Example 1, in vitro, Vero E6): obvious inhibitory effects; also recorded: inhibitory activity
EC50 [3, 5]: 1710 nM
EC50 [3, 6]: 2880 nM
